Test results published in PubChem BioAssay AID2060340 (Molecular Pharmacology Branch, DTP, NCI, 2025).

Tested on: 349418-098-R-PDC spheroids, viability, % test/control
Assay: Anticancer human tumor 349418-098-R-PDC patient-derived lung adenocarcinoma cell line growth inhibition [IpAb]
Settings: spheroids with HUVEC and MSC; for IC50: curve of first compound; for viability, T/C: stronger effect = lower value
Outline: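 Spheroids of 60% malignant cells, 25% HUVEC and 15% MSC were exposed to targeted agents combined with ipatasertib or abemaciclib. Doses started at or near clinical Cmax (10 microM when unknown) and fell in half-log steps.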
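Further: spheroids exposed to compounds for 7 days.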

Question: What does the source list for Cn1ncc(Cl)c1-c1cc(C(=O)NC(CN)Cc2cccc(F)c2)sc1Cl (stereo not given) + CCN1CCN(Cc2ccc(Nc3ncc(F)c(-c4cc(F)c5nc(C)n(C(C)C)c5c4)n3)nc2)CC1?
Answer: IC50 (second compound 0.01 µM): 49.8 nM; IC50 (second compound 0.0316 µM): < 31.6 nM; IC50 (second compound 0.1 µM): < 31.6 nM; IC50 (second compound 0.316 µM): < 31.6 nM; IC50 (second compound 1 µM): < 31.6 nM; viability, T/C (second compound 0.01 µM, first compound 0.0316 µM): 63.1%; viability, T/C (second compound 0.01 µM, first compound 0.1 µM): 28.6%; viability, T/C (second compound 0.01 µM, first compound 0.316 µM): 17.1%; viability, T/C (second compound 0.01 µM, first compound 1 µM): 9.53%; viability, T/C (second compound 0.01 µM, first compound 3.16 µM): 6.15%; viability, T/C (second compound 0.01 µM, first compound 10 µM): 0.1%; viability, T/C (second compound 0.0316 µM, first compound 0.0316 µM): 36.9%; viability, T/C (second compound 0.0316 µM, first compound 0.1 µM): 18.1%; viability, T/C (second compound 0.0316 µM, first compound 0.316 µM): 9.18%; viability, T/C (second compound 0.0316 µM, first compound 1 µM): 7.63%; viability, T/C (second compound 0.0316 µM, first compound 3.16 µM): 5.83%; viability, T/C (second compound 0.0316 µM, first compound 10 µM): 0.14%; viability, T/C (second compound 0.1 µM, first compound 0.0316 µM): 21.3%; viability, T/C (second compound 0.1 µM, first compound 0.1 µM): 12.5%; viability, T/C (second compound 0.1 µM, first compound 0.316 µM): 8.7%; viability, T/C (second compound 0.1 µM, first compound 1 µM): 6.91%; viability, T/C (second compound 0.1 µM, first compound 3.16 µM): 5.88%; viability, T/C (second compound 0.1 µM, first compound 10 µM): 0.09%; viability, T/C (second compound 0.316 µM, first compound 0.0316 µM): 16%; viability, T/C (second compound 0.316 µM, first compound 0.1 µM): 12.5%; viability, T/C (second compound 0.316 µM, first compound 0.316 µM): 8.98%; viability, T/C (second compound 0.316 µM, first compound 1 µM): 6.46%; viability, T/C (second compound 0.316 µM, first compound 3.16 µM): 4.96%; viability, T/C (second compound 0.316 µM, first compound 10 µM): 0.19%; viability, T/C (second compound 1 µM, first compound 0.0316 µM): 14%; viability, T/C (second compound 1 µM, first compound 0.1 µM): 11.7%; viability, T/C (second compound 1 µM, first compound 0.316 µM): 9.07%; viability, T/C (second compound 1 µM, first compound 1 µM): 8.54%; viability, T/C (second compound 1 µM, first compound 3.16 µM): 3.59%; viability, T/C (second compound 1 µM, first compound 10 µM): 0.24%
